This test has as its target T1, aldose reductase (Rattus norvegicus, UniProt P07943).
T1 construct: The crystalline lenses were homogenized in 135 mM sodium-potassium-phosphate buffer (pH 7.0) and centrifuged; from tissue; host or cells: lens of 6 week-old Wistar rats (30,000 rpm supernatant of homogenate)
Put plainly: Determination of Aldose Reductase Activity (In Vitro). In kind it is biochemical, rat (Wistar). The following applies: Table 3; for inhibition at 10 µM: at the concentration of 10 μM, read-out: Inhibition rate %; for IC50: rat lens aldose reductase, 20 mM glucose, 30 min, 30° C, pH 7.0, read-out: 50% Inhibition Conc. [IC50 (M)]. The procedure:
6 week-old Wistar rats were sacrificed under ether anesthesia, and immediately lenses were removed and stored at -20° C. The crystalline lenses were homogenized in 135 mM sodium-potassium-phosphate buffer (pH 7.0) and centrifuged for 30 min. at 30,000 rpm. The supernatant was used as an aldose-reductase solution. The above procedure was carried out at 4° C. The enzyme solution was stored at -20° C.
The measurement of aldose reductase activity was conducted according to the method as described by Duffane et al. (Biochemical Medicine, 32:99-105 (1984)).
That is, 100 gl of the above enzyme solution and 100 gl of a solution prepared by dissolving a compound obtained in the following example to a final concentration of from 1.0×10^-5 to 4.0×10^-7 M in dimethylsulfoxide (DMSO) were added to 800 gl of 135 mM sodium-potassium-phosphate buffer (pH 7.0) containing 100 mM lithium sulfate, 0.03 mM NADPH (reduced form of nicotinamide adeninc dinucleotide phosphate) and 20 mM glucose as a substrate. The sample was allowed to react for 30 min. at 30° C. The reaction was stopped by addition of 0.3 ml of 0.5N hydrochloric acid. The NADP (oxided form of nicotinamide adenine dinucleotide) formed during the above reaction was converted into a fluorescent substance by addition of 1 ml of 6N sodium hydroxide containing 10 mM imidazole. 30 min. thereafter, the sample was measured for fluorescence intensity at the fluorescence wavelength of 460 nm (excitation wavelength: 360 nm) using a fluorescence photometer F-4000 (manufactured by Hitachi, Ltd.) at room temperature. A sample containing DMSO in place of the present compound was used as a control, and its fluorescence intensity was determined in the same manner as above.
Aldose reductase is an enzyme to convert DL-glyceraldehyde or glucose into polyol in the presence of NADPH as a coenzyme. As this reaction proceeds, NADPH is converted into NADP, so that the smaller amount of NADP formed indicates higher inhibition of aldose reductase. […]

For 38 compounds, inhibition and IC50 results are on record in patent US5455267A, “Chromone derivative, and aldose reductase inhibitor comprising said compound as active component” (Tsumura & Co., priority 1990, dated 1995).

For orientation: inhibition means the relative decrease from the control value, in per cent. Usually IC50 stands for the point on the concentration scale where inhibition reaches its midpoint.

Structures are written as SMILES.

Regarding `O=c1cc(SCc2ccc(O)cc2)oc2cc(O)cc(O)c12` [Example 75, 5,7-dihydroxy-2-(4-hydroxybenzylthio)chromone], the inhibition at 10 µM is 43.5%.

With `COc1cc(OC)c2c(=O)cc(Sc3ccccc3O)oc2c1` [Example 56, 2-(2-hydroxyphenylthio)-5,7-dimethoxychromone], the inhibition at 10 µM came out at 35.9%. On to `COc1cc(OC)c2c(=O)cc(Sc3ccc(CO)cc3)oc2c1` [Example 66, 5,7-dimethoxy-2-(4-hydroxymethyl-phenylthio)chromone], for which the inhibition at 10 µM worked out at 31.5%.

Consider `COc1cc(OC)c2c(=O)cc(Sc3nnc(N)s3)oc2c1` [Example 63, 2-(2-amino-5-thiadiazolylthio)-5,7-dimethoxychromone], for which the inhibition at 10 µM was determined as 31.1%.

Regarding `COc1c(OC(C)C)cc2oc([S+]([O-])c3ccc(O)cc3)cc(=O)c2c1OC` (stereo not shown) [Compound 1 obtained in Example 34, 5,6-dimethoxy-2-(4-hydroxyphenylsulfinyl)-7-isopropoxychromone], the inhibition at 10 µM worked out at 98% and the half-inhibitory concentration (IC50) came to 4.6e-07 M. Take `COC(=O)c1ccc(Sc2cc(=O)c3c(OC)cc(OC)cc3o2)cc1` [Example 65, methyl 4-(5,7-dimethoxychromonyl-2-thio)benzoate]: the inhibition at 10 µM was 23.1%. Take `CCOc1cc2oc(Sc3ccc(O)cc3)cc(=O)c2c(OCC)c1OC` [Example 11, 5,7-diethoxy-2-(4-hydroxyphenylthio)-6-methoxychromone]: the inhibition at 10 µM is 98.5% and the IC50 came to 4e-08 M. `COc1cccc(Sc2cc(=O)c3c(OC)cc(OC)cc3o2)c1` [Example 47, 5,7-dimethoxy-2-(3-methoxyphenylthio)chromone]: the inhibition at 10 µM was determined as 36.5%. Regarding `COc1c(OC(C)C)cc2oc(Sc3ccc(O)cc3)cc(=O)c2c1O` [Example 26, 5-hydroxy-2-(4-hydroxyphenylthio)-7-isopropoxy-6-methoxychromone], the inhibition at 10 µM was 98.1% and the 50% inhibitory concentration (IC50) stood at 6.5e-08 M. Regarding `CCCOc1cc2oc(Sc3ccc(O)cc3)cc(=O)c2c(OCCC)c1OC` [Example 12, 5,7-dipropoxy-2-(4-hydroxyphenylthio)-6-methoxychromone], the inhibition at 10 µM turned out to be 93% and the IC50 came out at 1.5e-07 M.

As for `COc1cc2oc(Sc3ccc(O)cc3)cc(=O)c2c(O)c1OC` [Example 2, 5-hydroxy-2-(4-hydroxyphenylthio)-6,7-dimethoxychromone], the inhibition at 10 µM came to 87.1% and the concentration for half-maximal inhibition (IC50) came out at 1.1e-07 M. Take `CCOc1c(OC)c(OCC=C(C)C)cc2oc(Sc3ccc(O)cc3)cc(=O)c12` [Example 31, 5-ethoxy-2-(4-hydroxyphenylthio)-6-methoxy-7-prenyloxychromone]: the inhibition at 10 µM came out at 100% and the IC50 is 2.3e-07 M. Regarding `COc1cc(OC)c2c(=O)cc(Sc3cccc(Cl)c3)oc2c1` [Example 43, 5,7-dimethoxy-2-(3-chlorophenylthio)chromone], the inhibition at 10 µM worked out at 44%. For the compound `COc1cc(OC)c2c(=O)cc(Sc3ccccc3)oc2c1` [Example 41, 5,7-dimethoxy-2-phenylthiochromone], the inhibition at 10 µM was 52.4%. With `CCC(C)Oc1cc2oc(Sc3ccc(O)cc3)cc(=O)c2c(OC(C)CC)c1OC` (stereo not shown) [Example 15, 5,7-di-s-butoxy-2-(4-hydroxyphenylthio)-6-methoxychromone], the inhibition at 10 µM was found to be 98.4% and the IC50 was 3.8e-08 M. As for `COc1cc(OC)c2c(=O)cc(Sc3ccncc3)oc2c1` [Example 59, 5,7-dimethoxy-2-(4-pyridylthio)chromone], the inhibition at 10 µM worked out at 37.1%.

As to `COc1cc(OC)c2c(=O)cc(Sc3ccccc3OC)oc2c1` [Example 46, 5,7-dimethoxy-2-(2-methoxyphenylthio)chromone], the inhibition at 10 µM was found to be 28.4%.

In the case of `COc1c(OC(C)=O)cc2oc(Sc3ccc(O)cc3)cc(=O)c2c1OC(C)=O` [Compound 1 obtained in Example 28, 5,7-diacetoxy-2-(4-hydroxyphenylthio)-6-methoxychromone], the inhibition at 10 µM is 95.4% and the IC50 amounted to 1.7e-07 M.

In the case of `COc1c(OC(C)=O)cc2oc(Sc3ccc(O)cc3)cc(=O)c2c1O` [Compound 2 obtained in Example 28, 7-acetoxy-5-hydroxy-2-(4-hydroxyphenylthio)-6-methoxychromone], the inhibition at 10 µM is 95.4% and the IC50 is 3e-07 M. Take `COc1cc(O)c2c(=O)cc(SCc3ccc(O)cc3)oc2c1` [Example 74, 5-hydroxy-2-(4-hydroxybenzylthio)-7-methoxychromone]: the inhibition at 10 µM is 52.1%.

With `COc1cc(OC)c2c(=O)cc(Sc3ccccc3N)oc2c1` [Example 49, 5,7-dimethoxy-2-(2-aminophenylthio)chromone], the inhibition at 10 µM was found to be 48.2%.

On to `CCCCOc1cc2oc(Sc3ccc(O)cc3)cc(=O)c2c(OCCCC)c1OC` [Example 14, 5,7-dibutoxy-2-(4-hydroxyphenylthio)-6-methoxychromone], for which the inhibition at 10 µM turned out to be 86.8% and the IC50 came out at 1.9e-07 M. On to `COc1cc(OC)c2c(=O)cc(Sc3ccc(C(=O)O)cc3)oc2c1` [Example 64, 4-(5,7-dimethoxychromonyl-2-thio)benzoic acid], for which the inhibition at 10 µM was 52.9%.

Regarding `COc1cc(OC)c2c(=O)cc(Sc3ccccn3)oc2c1` [Example 58, 5,7-dimethoxy-2-(2-pyridylthio)chromone], the inhibition at 10 µM worked out at 37.4%.

`COc1c(OC(C)C)cc2oc(Sc3ccc(O)c(Cl)c3)cc(=O)c2c1OC(C)C` [Example 19, 2-(3-chloro-4-hydroxyphenylthio)-5,7-diisopropoxy-6-methoxychromone]: the inhibition at 10 µM is 69.8% and the IC50 worked out at 4e-06 M. As for `COc1cc(OC)c2c(=O)cc(Sc3cccc(O)c3)oc2c1` [Example 57, 2-(3-hydroxyphenylthio)-5,7-dimethoxychromone], the inhibition at 10 µM stood at 50.5%. Turning to `COc1cc(O)c2c(=O)cc(Sc3ccc(O)cc3)oc2c1` [Example 72, 5-hydroxy-2-(4-hydroxyphenylthio)-7-methoxychromone], the inhibition at 10 µM worked out at 84% and the IC50 was 1e-07 M. Consider `COc1cc(OC)c2c(=O)cc(Sc3ccccc3Cl)oc2c1` [Example 42, 5,7-dimethoxy-2-(2-chlorophenylthio)chromone], for which the inhibition at 10 µM came out at 47.7%.

As for `COc1cc(O)c2c(=O)cc(Nc3ccc(O)cc3)oc2c1` [Compound 2 obtained in Example 77, 5-hydroxy-2-(4-hydroxyanilino)-7-methoxychromone], the inhibition at 10 µM came out at 40%.

With `COc1cc(OC)c2c(=O)cc(Sc3cccc(C)c3)oc2c1` [Example 53, 5,7-dimethoxy-2-(3-methylphenylthio)chromone], the inhibition at 10 µM amounted to 22.8%. For the compound `CC(C)Oc1cc(OC(C)C)c2c(=O)cc(Sc3ccc(O)cc3)oc2c1` [Example 69, 5,7-diisopropoxy-2-(4-hydroxyphenylthio)chromone], the inhibition at 10 µM came out at 97.7%.

On to `COc1cc(OC)c2c(=O)cc(Sc3ccccc3C)oc2c1` [Example 52, 5,7-dimethoxy-2-(2-methylphenylthio)chromone], for which the inhibition at 10 µM was 31.7%.

`COc1cc(OC)c2c(=O)cc(Sc3ccc(O)cc3)oc2c1` [Example 71, 2-(4-hydroxyphenylthio)-5,7-dimethoxychromone]: the inhibition at 10 µM was found to be 88.7% and the IC50 worked out at 1e-07 M. With `COc1cc(OC)c2c(=O)cc(Oc3ccc(O)cc3)oc2c1` [Example 70, 2-(4-hydroxyphenoxy)-5,7-dimethoxychromone], the inhibition at 10 µM was determined as 85.5% and the IC50 stood at 1e-06 M.

Turning to `COc1c(OC(C)C)cc2oc(Sc3ccc(O)cc3)cc(=O)c2c1OC(C)C` [Example 13, 5,7-diisopropoxy-2-(4-hydroxyphenylthio)-6-methoxychromone], the inhibition at 10 µM came to 93.7% and the IC50 is 1.8e-08 M.

In the case of `COc1c(OCC(C)C)cc2oc(Sc3ccc(O)cc3)cc(=O)c2c1OC(C)C` [Example 17, 2-(4-hydroxyphenylthio)-7-isobutoxy-5-isopropoxy-6-methoxychromone], the inhibition at 10 µM worked out at 95.1% and the IC50 was 1.3e-07 M. On to `COc1ccc(CSc2cc(=O)c3c(OC)cc(OC)cc3o2)cc1` [Example 73, 5,7-dimethoxy-2-(4-methoxybenzylthio)chromone], for which the inhibition at 10 µM turned out to be 16.4%.

In the case of `COc1c(OC(C)C)cc2oc(S(=O)(=O)c3ccc(O)cc3)cc(=O)c2c1OC` [Compound 2 obtained in Example 34, 5,6-dimethoxy-2-(4-hydroxyphenylsulfonyl)-7-isopropoxychromone], the inhibition at 10 µM amounted to 96.6% and the IC50 stood at 1e-06 M.
